{"source": "patent US20160272620A1", "about": "(priority 2013, published 2016)", "key": {"[1]": {"settings": "rat brain microdialysis, HPLC/UV; cited from earlier work"}, "paraoxon-hAChE [2]": {"biological_target": "T1, paraoxon-hAChE (Homo sapiens, UniProt P22303)", "T1 sequence (P22303 32-574)": "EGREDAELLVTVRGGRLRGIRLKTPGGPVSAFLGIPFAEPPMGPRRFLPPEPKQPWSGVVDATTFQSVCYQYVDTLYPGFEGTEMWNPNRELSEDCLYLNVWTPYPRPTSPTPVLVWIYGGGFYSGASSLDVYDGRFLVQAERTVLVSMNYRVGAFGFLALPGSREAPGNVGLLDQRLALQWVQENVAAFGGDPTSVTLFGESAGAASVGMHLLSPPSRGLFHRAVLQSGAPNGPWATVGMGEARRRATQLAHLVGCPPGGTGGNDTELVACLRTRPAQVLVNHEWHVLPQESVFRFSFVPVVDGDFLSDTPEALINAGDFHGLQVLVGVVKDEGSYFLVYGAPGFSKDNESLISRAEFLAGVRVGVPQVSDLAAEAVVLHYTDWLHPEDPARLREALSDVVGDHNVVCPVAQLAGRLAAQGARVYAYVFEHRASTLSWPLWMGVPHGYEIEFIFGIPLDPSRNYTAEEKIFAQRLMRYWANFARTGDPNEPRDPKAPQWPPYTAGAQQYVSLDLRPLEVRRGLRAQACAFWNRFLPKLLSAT", "type": "biochemical"}, "paraoxon-hAChE [3]": {"biological_target": "T1, paraoxon-hAChE", "settings": "cited from earlier work"}}, "note": "Like-named read-outs stand apart in the source and are kept apart here."}
{"smiles": "C[n+]1ccccc1/C=N/O", "note": "[Compound 2-PAM]", "values": [{"measurement": "BBB penetration", "setting": "[1]", "result": 10, "unit": "%"}]}
{"smiles": "ON=Cc1nccc(CCCCCNc2c3c(nc4ccccc24)CCCC3)c1O", "note": "[Compound 10, 2-[(hydroxyimino)methyl]-4-{5-[(1,2,3,4-tetrahydroacridin-9-yl)amino]pentyl}pyridin-3-ol]", "values": [{"measurement": "reactivation of paraoxon inhibited hAChE", "setting": "paraoxon-hAChE [2]", "result": "no reactivation"}]}
{"smiles": "O/N=C/c1nc(CCCCCNc2c3c(nc4ccccc24)CCCC3)ccc1O", "note": "[Compound 11, 2-[(1E)-(hydroxyimino)methyl]-6-{5-[(1,2,3,4-tetrahydroacridin-9-yl)amino]pentyl}pyridin-3-ol]", "values": [{"measurement": "kr", "setting": "paraoxon-hAChE [2]", "result": "0.0228 ± 0.0006", "unit": "min⁻¹"}, {"measurement": "kr2", "setting": "paraoxon-hAChE [2]", "result": 20.9, "unit": "mM⁻¹ min⁻¹"}]}
{"smiles": "ON=Cc1nc(CCCCNc2c3c(nc4ccccc24)CCCC3)ccc1O", "note": "[Compound 12, 2-[1-(hydroxyimino)methyl]-6-{4-[(1,2,3,4-tetrahydroacridin-9-yl)amino]butyl}pyridin-3-ol]", "values": [{"measurement": "kr", "setting": "paraoxon-hAChE [2]", "result": "0.111 ± 0.002", "unit": "min⁻¹"}, {"measurement": "kr2", "setting": "paraoxon-hAChE [2]", "result": 31, "unit": "mM⁻¹ min⁻¹"}]}
{"smiles": "ON=Cc1nc(CCCCNc2c3c(nc4ccc(Cl)cc24)CCCC3)ccc1O", "note": "[Compound 15, 6-(4-((7-Chloro-1,2,3,4-tetrahydroacridin-9-yl)amino)butyl)-3-hydroxy-picolin-aldehyde oxime]", "values": [{"measurement": "kr", "setting": "paraoxon-hAChE [2]", "result": "0.11 ± 0.01", "unit": "min⁻¹"}, {"measurement": "kr2", "setting": "paraoxon-hAChE [2]", "result": 19, "unit": "mM⁻¹ min⁻¹"}]}
{"smiles": "ON=Cc1cc[n+](CCC[n+]2ccc(/C=N/O)cc2)cc1", "note": "[Trimedoxime]", "values": [{"measurement": "kr", "setting": "paraoxon-hAChE [3]", "result": "0.34 ± 0.02 ^a min^−1"}, {"measurement": "kr2", "setting": "paraoxon-hAChE [3]", "result": "17 ^a mM^−1min^−1"}]}
